Data reported in ChEMBL document CHEMBL2346657, “Synthesis of novel 2-amino-4-(5'-substituted 2'-phenyl-1H-indol-3'-yl)-6-aryl-4H-pyran-3-carbonitrile derivatives as antimicrobial and antioxidant agents” (2013).
Activity calls are given as the source filed them. How the calls were made is not given here.

How the values were obtained:
Format in all cases: functional
[1] = Antioxidant activity assessed as metal chelating activity by measuring inhibition of ferrozine-Fe2+ complex formation at 25 to 100 ug/ml
Aspergillus flavus [2] = assay: Antimicrobial activity against Aspergillus flavus MTCC 1973 at 500 ug/ml after 72 hrs by cup plate method; settings: MTCC 1973, 72 h, read-out: IZ
Aspergillus flavus [3] = assay: Antimicrobial activity against Aspergillus flavus MTCC 1973 at 750 ug/ml after 72 hrs by cup plate method; settings: MTCC 1973, 72 h, read-out: IZ
Aspergillus flavus [4] = assay: Antimicrobial activity against Aspergillus flavus MTCC 1973 at 1000 ug/ml after 72 hrs by cup plate method; settings: MTCC 1973, 72 h, read-out: IZ
Aspergillus terreus [5] = assay: Antimicrobial activity against Aspergillus terreus MTCC 1782 at 500 ug/ml after 72 hrs by cup plate method; settings: MTCC 1782, 72 h, read-out: IZ
Aspergillus terreus [6] = assay: Antimicrobial activity against Aspergillus terreus MTCC 1782 at 750 ug/ml after 72 hrs by cup plate method; settings: MTCC 1782, 72 h, read-out: IZ
Aspergillus terreus [7] = assay: Antimicrobial activity against Aspergillus terreus MTCC 1782 at 1000 ug/ml after 72 hrs by cup plate method; settings: MTCC 1782, 72 h, read-out: IZ
Aspergillus oryzae [8] = assay: Antimicrobial activity against Aspergillus oryzae MTCC 3567 at 500 ug/ml after 72 hrs by cup plate method; settings: MTCC 3567, 72 h, read-out: IZ
Aspergillus oryzae [9] = assay: Antimicrobial activity against Aspergillus oryzae MTCC 3567 at 750 ug/ml after 72 hrs by cup plate method; settings: MTCC 3567, 72 h, read-out: IZ
Aspergillus oryzae [10] = assay: Antimicrobial activity against Aspergillus oryzae MTCC 3567 at 1000 ug/ml after 72 hrs by cup plate method; settings: MTCC 3567, 72 h, read-out: IZ
Aspergillus niger [11] = assay: Antimicrobial activity against Aspergillus niger MTCC 281 at 500 ug/ml after 72 hrs by cup plate method; settings: MTCC 281, 72 h, read-out: IZ
Aspergillus niger [12] = assay: Antimicrobial activity against Aspergillus niger MTCC 281 at 750 ug/ml after 72 hrs by cup plate method; settings: MTCC 281, 72 h, read-out: IZ
Aspergillus niger [13] = assay: Antimicrobial activity against Aspergillus niger MTCC 281 at 1000 ug/ml after 72 hrs by cup plate method; settings: MTCC 281, 72 h, read-out: IZ
Pseudomonas aeruginosa [14] = assay: Antimicrobial activity against Pseudomonas aeruginosa MTCC 1688 at 500 ug/ml after 24 hrs by cup plate method; settings: MTCC 1688, 24 h, read-out: IZ
Pseudomonas aeruginosa [15] = assay: Antimicrobial activity against Pseudomonas aeruginosa MTCC 1688 at 750 ug/ml after 24 hrs by cup plate method; settings: MTCC 1688, 24 h, read-out: IZ
Pseudomonas aeruginosa [16] = assay: Antimicrobial activity against Pseudomonas aeruginosa MTCC 1688 at 1000 ug/ml after 24 hrs by cup plate method; settings: MTCC 1688, 24 h, read-out: IZ
Klebsiella pneumoniae [17] = assay: Antimicrobial activity against Klebsiella pneumoniae NCTC 13368 at 500 ug/ml after 24 hrs by cup plate method; settings: NCTC 13368, 24 h, read-out: IZ
Klebsiella pneumoniae [18] = assay: Antimicrobial activity against Klebsiella pneumoniae NCTC 13368 at 750 ug/ml after 24 hrs by cup plate method; settings: NCTC 13368, 24 h, read-out: IZ
Klebsiella pneumoniae [19] = assay: Antimicrobial activity against Klebsiella pneumoniae NCTC 13368 at 1000 ug/ml after 24 hrs by cup plate method; settings: NCTC 13368, 24 h, read-out: IZ
Staphylococcus aureus [20] = assay: Antimicrobial activity against Staphylococcus aureus ATCC 29513 at 500 ug/ml after 24 hrs by cup plate method; settings: ATCC 29513, 24 h, read-out: IZ
Staphylococcus aureus [21] = assay: Antimicrobial activity against Staphylococcus aureus ATCC 29513 at 750 ug/ml after 24 hrs by cup plate method; settings: ATCC 29513, 24 h, read-out: IZ
Staphylococcus aureus [22] = assay: Antimicrobial activity against Staphylococcus aureus ATCC 29513 at 1000 ug/ml after 24 hrs by cup plate method; settings: ATCC 29513, 24 h, read-out: IZ
Escherichia coli [23] = assay: Antimicrobial activity against Escherichia coli MTCC 723 at 500 ug/ml after 24 hrs by cup plate method; settings: MTCC 723, 24 h, read-out: IZ
Escherichia coli [24] = assay: Antimicrobial activity against Escherichia coli MTCC 723 at 750 ug/ml after 24 hrs by cup plate method; settings: MTCC 723, 24 h, read-out: IZ
Escherichia coli [25] = assay: Antimicrobial activity against Escherichia coli MTCC 723 at 1000 ug/ml after 24 hrs by cup plate method; settings: MTCC 723, 24 h, read-out: IZ

| SMILES | Activity [1] | zone of inhibition at 500 µg/mL (Aspergillus flavus [2]) [mm] | zone of inhibition at 750 µg/mL (Aspergillus flavus [3]) [mm] | zone of inhibition at 1000 µg/mL (Aspergillus flavus [4]) [mm] | zone of inhibition at 500 µg/mL (Aspergillus terreus [5]) [mm] | zone of inhibition at 750 µg/mL (Aspergillus terreus [6]) [mm] | zone of inhibition at 1000 µg/mL (Aspergillus terreus [7]) [mm] | zone of inhibition at 500 µg/mL (Aspergillus oryzae [8]) [mm] | zone of inhibition at 750 µg/mL (Aspergillus oryzae [9]) [mm] | zone of inhibition at 1000 µg/mL (Aspergillus oryzae [10]) [mm] | zone of inhibition at 500 µg/mL (Aspergillus niger [11]) [mm] | zone of inhibition at 750 µg/mL (Aspergillus niger [12]) [mm] | zone of inhibition at 1000 µg/mL (Aspergillus niger [13]) [mm] | zone of inhibition at 500 µg/mL (Pseudomonas aeruginosa [14]) [mm] | zone of inhibition at 750 µg/mL (Pseudomonas aeruginosa [15]) [mm] | zone of inhibition at 1000 µg/mL (Pseudomonas aeruginosa [16]) [mm] | zone of inhibition at 500 µg/mL (Klebsiella pneumoniae [17]) [mm] | zone of inhibition at 750 µg/mL (Klebsiella pneumoniae [18]) [mm] | zone of inhibition at 1000 µg/mL (Klebsiella pneumoniae [19]) [mm] | zone of inhibition at 500 µg/mL (Staphylococcus aureus [20]) [mm] | other results |
| --- | --- | --- | --- | --- | --- | --- | --- | --- | --- | --- | --- | --- | --- | --- | --- | --- | --- | --- | --- | --- | --- |
| Cc1ccc(C2=CC(c3c(-c4ccccc4)[nH]c4ccc(Cl)cc34)c3c(N)nc(=S)[nH]c3O2)cc1 (stereo not given) | Active | 3 | 3 | 3 | 9 | 8 | 8 | 3 | 2 | 2 | 10 | 10 | 10 | 10 | 10 | 10 | 10 | 10 | 9 | 6 | zone of inhibition at 750 µg/mL (Staphylococcus aureus [21]): 3 mm; zone of inhibition at 1000 µg/mL (Staphylococcus aureus [22]): 2 mm; zone of inhibition at 500 µg/mL (Escherichia coli [23]): 10 mm; zone of inhibition at 750 µg/mL (Escherichia coli [24]): 9 mm; zone of inhibition at 1000 µg/mL (Escherichia coli [25]): 9 mm |
| O=c1[nH]cnc2c1C(c1c(-c3ccccc3)[nH]c3ccccc13)C=C(c1ccccc1)O2 (stereo not given) | Active | 9 | 9 | 9 | 9 | 8 | 8 | 5 | 5 | 5 | 6 | 6 | 5 | 5 | 4 | 4 | 11 | 10 | 10 | 10 | zone of inhibition at 750 µg/mL (Staphylococcus aureus [21]): 10 mm; zone of inhibition at 1000 µg/mL (Staphylococcus aureus [22]): 10 mm; zone of inhibition at 500 µg/mL (Escherichia coli [23]): 8 mm; zone of inhibition at 750 µg/mL (Escherichia coli [24]): 6 mm; zone of inhibition at 1000 µg/mL (Escherichia coli [25]): 6 mm |
| Cc1ccc(C2=CC(c3c(-c4ccccc4)[nH]c4ccc(C)cc34)c3c(nc[nH]c3=O)O2)cc1 (stereo not given) | Active | 10 | 9 | 9 | 9 | 9 | 9 | 3 | 3 | 3 | 3 | 3 | 3 | 8 | 8 | 8 | 8 | 8 | 8 | 2 | zone of inhibition at 750 µg/mL (Staphylococcus aureus [21]): 2 mm; zone of inhibition at 1000 µg/mL (Staphylococcus aureus [22]): 2 mm; zone of inhibition at 500 µg/mL (Escherichia coli [23]): 2 mm; zone of inhibition at 750 µg/mL (Escherichia coli [24]): 2 mm; zone of inhibition at 1000 µg/mL (Escherichia coli [25]): 2 mm |
| Nc1nc(=S)[nH]c2c1C(c1c(-c3ccccc3)[nH]c3ccccc13)C=C(c1ccc(Cl)cc1)O2 (stereo not given) | Active | 12 | 12 | 5 | 8 | 5 | 5 | 9 | 8 | 8 | 3 | 3 | 5 | 10 | 10 | 10 | 8 | 8 | 5 | 10 | zone of inhibition at 750 µg/mL (Staphylococcus aureus [21]): 10 mm; zone of inhibition at 1000 µg/mL (Staphylococcus aureus [22]): 11 mm; zone of inhibition at 500 µg/mL (Escherichia coli [23]): 10 mm; zone of inhibition at 750 µg/mL (Escherichia coli [24]): 10 mm; zone of inhibition at 1000 µg/mL (Escherichia coli [25]): 10 mm |
| Cc1ccc(C2=CC(c3c(-c4ccccc4)[nH]c4ccc(C)cc34)c3c(N)nc(=S)[nH]c3O2)cc1 (stereo not given) | Active | 9 | 8 | 9 | 5 | 5 | 5 | 5 | 5 | 5 | 0 | 0 | 0 | 6 | 5 | 5 | 6 | 5 | 5 | 0 | zone of inhibition at 750 µg/mL (Staphylococcus aureus [21]): 0 mm; zone of inhibition at 1000 µg/mL (Staphylococcus aureus [22]): 0 mm; zone of inhibition at 500 µg/mL (Escherichia coli [23]): 5 mm; zone of inhibition at 750 µg/mL (Escherichia coli [24]): 4 mm; zone of inhibition at 1000 µg/mL (Escherichia coli [25]): 4 mm |
| Nc1nc(=S)[nH]c2c1C(c1c(-c3ccccc3)[nH]c3ccc(Cl)cc13)C=C(c1ccccc1)O2 (stereo not given) | Active | 8 | 8 | 8 | 9 | 8 | 8 | 10 | 10 | 0 | 5 | 5 | 10 | 6 | 5 | 5 | 10 | 10 | 10 | 9 | zone of inhibition at 750 µg/mL (Staphylococcus aureus [21]): 9 mm; zone of inhibition at 1000 µg/mL (Staphylococcus aureus [22]): 9 mm; zone of inhibition at 500 µg/mL (Escherichia coli [23]): 10 mm; zone of inhibition at 750 µg/mL (Escherichia coli [24]): 8 mm; zone of inhibition at 1000 µg/mL (Escherichia coli [25]): 8 mm |
